According to US8541471B2, “Water-soluble strontium salts for use in treatment of cartilage and/or bone conditions” (Osteologix A/S, priority 2003, dated 2013):
Like-named read-outs stand apart in the source and are kept apart here.

Columns and labels:
[1] = not given; remark: listed apart in the source
[2] = target: T1, calcium-sensing receptor (CaR) (Homo sapiens, UniProt P41180); details: studies have shown; cited from earlier work
T1 sequence (P41180 20-1078): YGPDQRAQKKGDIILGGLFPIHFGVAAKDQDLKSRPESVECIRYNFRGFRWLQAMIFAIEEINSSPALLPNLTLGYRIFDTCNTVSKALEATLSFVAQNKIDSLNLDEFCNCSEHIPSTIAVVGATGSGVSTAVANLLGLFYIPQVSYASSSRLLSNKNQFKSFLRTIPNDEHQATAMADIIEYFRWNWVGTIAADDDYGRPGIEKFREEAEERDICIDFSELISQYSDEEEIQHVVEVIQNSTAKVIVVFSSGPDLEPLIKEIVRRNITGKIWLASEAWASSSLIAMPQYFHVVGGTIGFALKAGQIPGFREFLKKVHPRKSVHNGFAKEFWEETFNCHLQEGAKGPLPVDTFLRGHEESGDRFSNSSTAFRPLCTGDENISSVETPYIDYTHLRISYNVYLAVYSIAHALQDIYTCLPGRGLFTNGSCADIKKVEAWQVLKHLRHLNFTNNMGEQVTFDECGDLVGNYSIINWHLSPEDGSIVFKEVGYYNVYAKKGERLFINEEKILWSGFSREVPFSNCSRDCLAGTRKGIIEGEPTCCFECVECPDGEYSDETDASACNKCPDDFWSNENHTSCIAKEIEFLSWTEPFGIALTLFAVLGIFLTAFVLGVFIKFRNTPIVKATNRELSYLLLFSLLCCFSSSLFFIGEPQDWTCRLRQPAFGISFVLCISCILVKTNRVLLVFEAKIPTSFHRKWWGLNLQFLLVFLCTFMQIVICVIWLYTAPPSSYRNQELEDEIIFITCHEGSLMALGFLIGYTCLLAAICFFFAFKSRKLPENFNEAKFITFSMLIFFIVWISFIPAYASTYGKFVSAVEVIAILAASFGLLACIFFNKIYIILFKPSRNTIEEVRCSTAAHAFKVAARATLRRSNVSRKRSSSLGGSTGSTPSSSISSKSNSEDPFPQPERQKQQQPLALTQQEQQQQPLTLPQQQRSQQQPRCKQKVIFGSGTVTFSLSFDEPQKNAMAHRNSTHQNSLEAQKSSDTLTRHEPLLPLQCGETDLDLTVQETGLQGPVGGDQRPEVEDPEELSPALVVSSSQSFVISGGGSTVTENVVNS

With `N#Cc1c(N(CC(=O)[O-])CC(=O)[O-])sc(C(=O)[O-])c1CC(=O)[O-].[Sr+2].[Sr+2]` [Ranelate, distrontium salt of 2-[N,N-di(carboxymethyl)amino]-3-cyano-4-carboxymethylthiophene-5-carboxylic acid, reference compound] the “SOLUBILITY AT 40° C. pH 7.5” value was 1970 mg/L, the “SOLUBILITY AT ROOM TEMPERATURE (22-24° C.) pH 7.5” value (from here on “SOLUBILITY AT ROOM TEMPERATURE”) was 890 mg/L and the “time to maximum serum strontium concentration” value ([1]; rat, in vivo, po) was “approximately 2 hours”.
With “strontium alpha-ketoglutarate [α-ketogluterate]” the “rate of metabolism (second peak of model fit)” value ([1]; rats, FIGS. 9A-B) was “quickly metabolized”.
For `[Sr+2]` [strontium], the “activity at the calcium-sensing receptor (CaR)” value [2] is given as “full agonist”.
For `O=C([O-])/C=C\C(=O)[O-].[Sr+2]` [Maleate, strontium maleate], the “SOLUBILITY AT 40° C. pH 7.5” value was 1457 mg/L and the “SOLUBILITY AT ROOM TEMPERATURE” value was 1680 mg/L.
With `O=C([O-])/C=C/C(=O)[O-].[Sr+2]` [Fumerate, strontium fumarate] the “SOLUBILITY AT 40° C. pH 7.5” value was 977 mg/L and the “SOLUBILITY AT ROOM TEMPERATURE” value was 1215 mg/L.
For `N[C@@H](CCC(=O)[O-])C(=O)[O-].O.O.O.O.O.O.[Sr+2]` [L-glutamate, strontium glutamate hexahydrate], the AUC ([1]; female, Wistar HanTac:WH (GALAS), rat, in vivo, po) was 10100 mg·min/L and the “rate of metabolism (second peak of model fit)” value ([1]; rat, in vivo) was “rests longer in the serum”.
For `[Cl-].[Cl-].[Sr+2]` [Chloride, strontium chloride, reference compound], the AUC ([1]; rat, in vivo, po) was 7300 mg·min/L and the “time to maximum serum strontium concentration” value ([1]; rats, single oral gavage) was “approximately 2 hours”.
